Source: article PMC8802628, “Selective activation of PFKL suppresses the phagocytic oxidative burst” (Cell, 2021)
Values belong to the molecule of their own block, whether it stands above or below them.

Legend:
[1] = target: T1, GSDMD (Homo sapiens, UniProt P57764); assay: TR-FRET liposome cargo release (GSDMD pore formation); assay type: biochemical; settings: 10 μM
T1 sequence (P57764 1-484): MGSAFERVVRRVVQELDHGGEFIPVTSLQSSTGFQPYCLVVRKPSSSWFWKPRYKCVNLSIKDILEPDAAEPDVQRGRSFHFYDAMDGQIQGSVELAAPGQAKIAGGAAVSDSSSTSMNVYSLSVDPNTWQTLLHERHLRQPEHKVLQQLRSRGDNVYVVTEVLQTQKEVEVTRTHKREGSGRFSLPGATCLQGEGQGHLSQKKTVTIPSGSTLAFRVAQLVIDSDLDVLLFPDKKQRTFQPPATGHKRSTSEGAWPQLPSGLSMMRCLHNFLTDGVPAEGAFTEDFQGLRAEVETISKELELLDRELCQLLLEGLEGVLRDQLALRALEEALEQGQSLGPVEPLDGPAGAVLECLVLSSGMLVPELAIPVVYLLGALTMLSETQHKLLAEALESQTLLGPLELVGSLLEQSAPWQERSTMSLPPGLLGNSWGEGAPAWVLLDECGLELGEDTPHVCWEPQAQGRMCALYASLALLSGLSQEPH
Experimental: GSDMD-dependent liposome cargo release was conducted by Confluence Discovery Technologies with modifications to the procedure described previously ([Aglietti et al., 2016]). Briefly, liposomes with an encapsulated cargo of europium-chelate conjugated biotin were formed from a lipid mixture of DOPC:DOPE (1:1). 0.15 mg/mL of cargo-loaded liposomes were mixed with 0.3 μM of recombinant GSDMD and incubated with 10 μM LDC7559, 10 μM disulfiram or DMSO vehicle. 0.15 μM caspase-4 and 50 nM streptavidin-Alexa Fluor 647 were added and TR-FRET was read over 1 h using a PHERAstar FSX Microplate Reader (BMG Labtech) equipped with a TR-FRET module.

[2] = test system: human peripheral blood neutrophils; assay: NETosis assay in human neutrophils (SYTOX Green, DNA area); assay type: cell-based; settings: PMA; SAR analogs compared to LDC7559
Experimental: Freshly purified neutrophils were plated at 6 × 10^3 cells/well in glass bottom 96-well plates (SensoPlate, Greiner Bio-One 82050-792) in the RPMI medium described above. Cells were pretreated with DMSO vehicle, 0.5 μM NA-11, 100 μM apocynin, 0.5 μM and 5 μM PALP, or 0.5 μM and 5 μM LDC7559 for 30 min, and then stimulated with 50 nM PMA, 1 μM f-MLP, 5 μg/mL cholesterol crystals, 10 μg/mL LPS, 25 μM nigericin, or 25 μM calcymicin (A23187) for 3 h (except in Figures S1A, 6A and S7C, where cells were stimulated for 4 h). Cells were fixed and permeabilized in 2.5% paraformaldehyde (PFA) and 0.02% Triton X-100 in PBS for 30 min. For quantification of NETosis, cells were stained with 150 nM SYTOX Green and imaged in a KEYENCE Fluorescence Microscope (KEYENCE, ZB-X800E) at 10 x magnification. For immunolabeling, fixed cells were blocked with 2% BSA for 1 h, and then stained with anti-CitH3 and anti-MPO antibodies at a dilution of 1/200 in 1% BSA in PBS. Images were taken at 60 x magnification using an ImageXpress Micro Confocal high-content imaging system (Molecular Devices).
Semi-automated analysis of both phase and fluorescence images of SYTOX Green-stained neutrophils used a specialized MATLAB algorithm. Total cells were counted by scoring phase standard deviation and radial symmetry. NETosis was classified in cells by measuring the DNA area in the fluorescence image and comparing with a select internal training set for each experiment. Unstimulated cells and PMA-stimulated, […] cells served as negative controls. PMA-stimulated cells served as a positive control. NET-forming cells are presented as a percentage of total cells.

[3] = target: T2, PFKL (Homo sapiens, UniProt P17858); assay: Recombinant PFKL activity assay (relief of ATP inhibition); assay type: biochemical; settings: 3.1 mM ATP
T2 construct: made in house; host or cells: Sf9 insect cells (baculovirus, Bac-to-Bac)
T2 sequence (P17858 1-780): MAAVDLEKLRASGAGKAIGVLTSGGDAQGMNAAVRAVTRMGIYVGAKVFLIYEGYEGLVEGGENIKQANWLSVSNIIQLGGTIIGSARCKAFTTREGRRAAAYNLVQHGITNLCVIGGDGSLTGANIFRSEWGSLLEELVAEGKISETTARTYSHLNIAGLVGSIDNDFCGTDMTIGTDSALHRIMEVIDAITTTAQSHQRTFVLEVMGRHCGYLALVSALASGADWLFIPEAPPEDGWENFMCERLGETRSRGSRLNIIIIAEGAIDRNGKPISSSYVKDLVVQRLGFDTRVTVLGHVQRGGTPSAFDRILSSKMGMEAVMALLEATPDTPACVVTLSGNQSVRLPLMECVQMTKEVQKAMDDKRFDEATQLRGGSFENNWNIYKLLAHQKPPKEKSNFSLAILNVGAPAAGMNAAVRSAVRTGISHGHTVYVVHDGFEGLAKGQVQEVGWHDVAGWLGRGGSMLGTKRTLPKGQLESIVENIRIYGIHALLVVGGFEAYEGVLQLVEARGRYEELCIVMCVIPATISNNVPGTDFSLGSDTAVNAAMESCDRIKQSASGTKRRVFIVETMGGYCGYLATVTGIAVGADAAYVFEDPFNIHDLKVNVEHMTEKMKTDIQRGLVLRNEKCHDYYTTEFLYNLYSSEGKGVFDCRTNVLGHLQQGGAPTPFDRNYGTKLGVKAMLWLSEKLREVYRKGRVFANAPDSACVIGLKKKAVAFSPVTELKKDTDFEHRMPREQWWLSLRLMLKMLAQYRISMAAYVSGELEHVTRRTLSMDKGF
From the text: Recombinant N-terminal His-tagged human PFKL (NP_002617), PFKM (NP_000280), and PFKP (NM_002627.4) were generated as described ([Webb et al., 2015], [2017]). Point mutants of PFK1 were generated using the QuikChange Lightning kit (Aligent).
His-tagged PFK1 was expressed and purified as described with slight modifications ([Webb et al., 2015], [2017]). Briefly, baculovirus was generated using the Bac-to-Bac Expression system (Invitrogen). PFK1 was expressed in 2-5 × 10^6 sf9 cells at a multiplicity of infection of two for 48 h. Cells were lysed in 20 mM HEPES, pH 7.5, 80 mM potassium phosphate, 1 mM 2-mercapentoethanol, 10% glycerol, 10 mM imidazole, and EDTA-free Protease Inhibitor Cocktail (Abcam) with a Dounce homogenizer. The soluble lysate was incubated with HisPur cobalt resin (ThermoFisher Scientific). The resin was washed with 5 bead volumes lysis buffer, 10 bead volumes lysis buffer containing 2 M NaCl, and 5 further bead volumes lysis buffer. PFK1 was eluted in lysis buffer containing 100 mM imidazole. Fractions containing protein were pooled, passed over a desalting column equilibrated in freezing buffer [20 mM HEPES pH 7.5, 1 mM DTT, 500 μM ammonium sulfate, 5% glycerol, 1 mM ATP, and 100 μM EDTA] and concentrated using an Amicon Ultracel-30K Centrifugal Filter Unit (MilliporeSigma). Protein was quantified using a Bradford Protein Assay kit (ThermoFisher Scientific), and aliquotes frozen in liquid nitrogen for storage at −80°C.
PFK1 activity was determined using the rate of FBP production via an auxiliary enzyme assay adapted to a 96-well format ([Brüser et al., 2012]; [Webb et al., 2015]). The auxiliary enzymes aldolase, triosephosphate isomerase, and glycerol phosphate dehydrogenase were purchased from MilliporeSigma as ammonium sulfate slurries and desalted using an Amicon Ultracel-10K Centrifugal Filter Unit. For assays containing FBP, the rate of ADP production was determined using the auxiliary enzymes pyruvate kinase (PK) and lactate dehydrogenase (LDH) (MilliporeSigma) in a buffer containing 250 μM phosphoenolpyruvic acid, […] NADH, 50 mM HEPES pH 7.5, 100 mM KCl, 1 mM DTT, and effector concentrations as described in the text. The temperature was equilibrated to 25°C for 5 min before initiating the reaction 10 mM MgCl2. Absorbance at 340 nm was measured using a Varioskan LUX Multimode microplate reader (ThermoFisher). Kinetic parameters were generated by nonlinear regression analysis using Prism (GraphPad Software) and are the mean of a minimum of three measurements from two independent preparations of protein. One unit of activity was defined as the amount of enzyme that catalyzed the formation of 1 μmol of fructose 1,6-bisphosphate per min at 25°C. Assays for PFKM were performed at pH 7.0 due to the pH-dependence of ATP inhibition ([Trivedi and Danforth, 1966]).

[4] = test system: PMNs; assay: ROS detection assay (ROS-Glo) in neutrophils; assay type: cell-based, human
Experimental: ROS were measured using the ROS-Glo bioluminescent assay (Promega) for the direct detection of H2O2. Briefly, neutrophils (2 × 10^4) were plated in white 96-well plates (Greiner) in high glucose DMEM medium. Cells were cultured with DMSO vehicle, 0.5 μM NA-11, 5 μM LDC7559, 100 μM apocynin, or 200 μM thionicotinamide for 30 min, and then stimulated with 50 nM PMA or treated with 10 μg/mL zymosan beads, pre-opsonized in 20% serum for 30 min. Luminescence, after the addition of H2O2 substrate solution of 20 min, and then ROS-Glo detection solution for 20 min, was recorded on a plate reader (Envision).

[5] = test system: human bronchial epithelial cells (HBECs); assay: Epithelial barrier tissue damage assay (FITC-dextran); assay type: cell-based; settings: PMA-activated neutrophils on HBECs
Experimental: Human bronchial epithelial cells (HBECs) (4 × 10^4 in […] complete PneumaCult-Ex plus medium) were added to a HTS Transwell-96 permeable support plate (polyester membrane with a 0.4 μm pores) and immersed in receiver plates containing 150 μL of complete PneumaCult-Ex plus medium for 3 days. The medium on confluent monolayers was then replaced with RPMI medium containing neutrophils (4 × 10^4) in RPMI buffer that were previously treated with 5 μM NA-11, 100 μM apocynin, 5 μM NA-4, or DMSO vehicle and then activated with 100 nM PMA. The transwell plate was cultured in a new receiver plate containing 150 μL Hank’s balanced salt solution (HBSS) for 2 h. 10 μL of DMEM supplemented with 5% FBS and 2 mM L-glutamine were added to each well and the plate was incubated for additional 18 h. To measure the permeability of the epithelial barrier, FITC-dextran (200 μg/mL) and DNase-1 (22 Units/mL) were added to the apical side for 1 h. FITC-dextran in the receiver plate was measured (ex: 494 em: 521).

[6] = target: T2, PFKL; assay: Thermal inactivation assay of PFKL; assay type: biochemical; settings: 35°C; 200 μM FBP, 200 nM NA-11
Experimental: Thermal inactivation assays were performed as previously described for PFKP, with modifications to account for the decreased stability of PFKL ([Sánchez-Martínez et al., 2000]). PFKL was diluted to 10 ng/mL, with a final buffer composition of 53.3 mM HEPES, 100 mM KCl, 0.167 mM DTT, 83.3 μM ammonium sulfate, 0.83% glycerol, 0.170 mM ATP, and 16.7 mM EDTA. Samples were incubated at 35°C. At the times indicated, samples were removed and residual PFK1 activity measured using the PK/LDH auxiliary enzyme assay described above with 125 μM ATP and 5 mM F6P. To determine if small molecule ligands altered PFKL stability, 200 μM FBP and 200 nM NA-11 were added.

[7] = test system: PMNs; assay: NADPH/NADP+ detection assay in neutrophils; assay type: cell-based, human; settings: pretreatment, PMA-activated neutrophils
Experimental: The ratio of NADPH/NADP^+ (or NADH/NAD^+) was calculated after measuring the individual concentrations of NADPH and NADP^+ (or NADH and NAD^+) with NADP/NADPH-Glo (or NAD/NADH-Glo) assays (Promega). […] Cells were lysed in plates by addition of 1% dodecyltrimethylammonium bromide (DTAB). To measure NADPH, half of the samples was heated at 60 °C for 30 min. The other half was treated with HCl before heating to 60°C, to measure NADP^+. All samples were neutralized before adding luciferase detection reagent, then incubated for 1 h with gentle shaking. Luminescence was recorded on a plate reader (Envision).

[8] = test system: E. coli; assay: Phagocytosis assay: E. coli C.F.U. recovered from PMNs; assay type: cell-based, human; settings: neutrophils pretreated 30 min
Experimental: Neutrophils (1 × 10^6) were cultured in 6-well tissue in RPMI medium containing DMSO vehicle, 0.5 μM NA-11, 0.5 μM NA-4, 100 μM Apocynin or 100 μM thionicotinamide (TN) for 30 min. E. coli grown in LB broth overnight (2 mL) were opsonized with human serum (1 mL pooled from three donors) for 1 h at room temperature. Opsonized bacteria were washed with PBS, resuspended in LB broth to an OD600of 0.1 and then added to cultured neutrophils at an MOI of 1 for 30 min. Cells were washed with medium three times and then cultured with 300 μg/mL gentamicin for 2 h to kill any extracellular bacteria. Cells were then washed again, twice with medium and once with PBS. To release phagocytosed bacteria, neutrophils were lysed in 0.05% saponin in PBS. Lysates were passed through a 25’ gauge needed several times and the number of viable phagocytosed bacteria was determined by colony counting.

liposome permeabilization by GSDMD pore-forming fragment [1]: prevented liposome permeabilization
Structure (SMILES): CCN(CC)C(=S)SSC(=S)N(CC)CC [disulfiram]

activation of PFKL [3]: did not activate PFKL
Structure (SMILES): COc1ccccc1-c1cc2n(n1)Cc1ccc(N)cc1OC2 [NA-4]
inhibition of PMA-induced NETosis [2]: no inhibitor activity
ROS production during phagocytosis of opsonized zymosan ([4]; over 2 h): did not suppress ROS production
protection of epithelial layer from neutrophil-induced oxidative damage [5]: did not

protection of PFKL from thermal inactivation [6]: protected PFKL from thermal inactivation
Structure (SMILES): O=C(COP(=O)(O)O)[C@@H](O)[C@H](O)[C@H](O)COP(=O)(O)O [FBP, fructose 1,6-bisphosphate]

Structure (SMILES): COc1cc(C(C)=O)ccc1O [apocynin, reference compound]
ratio of NADPH/NADP+ [7]: roughly twice that of untreated cells
killing of phagocytosed bacteria (bacterial colonies recovered) [8]: less efficient killers of phagocytosed bacteria
PMA-induced ROS production ([4]; 50 nM PMA): prevented
protection of epithelial layer from neutrophil-induced oxidative damage [5]: protected the epithelial layer
